From patent US20210070748A1, “INHIBITORS OF BRUTONS TYROSINE KINASE” (Pharmacyclics LLC, priority 2015, published 2021)
Structures can show the parent of a compound that is named as a salt. Where two headings read alike, the source gives them in different places.

Assays:
Assay type in all cases: biochemical
BTK-WT = target: T1, BTK-WT (Homo sapiens, UniProt Q06187); assay: Btk in vitro inhibitory activity (one of Method A TR-FRET, Method B electrophoretic mobility shift, Method C radiometric filter binding); details: read-out: BTK-WT (IC50)
T1 construct: purified from insect cells as a full-length construct containing an N-terminal 6X-His tag; His6 (N); made in house; host or cells: insect cells (baculovirus Sf21 in Method B)

JAK3 = target: T2, JAK3 (Homo sapiens, UniProt P52333); assay: Inhibition of a panel of kinases, in vitro HotSpot kinase assay: JAK3; details: 1 μM ATP, read-out: JAK3 (IC50)
T2 sequence (P52333 1-1124): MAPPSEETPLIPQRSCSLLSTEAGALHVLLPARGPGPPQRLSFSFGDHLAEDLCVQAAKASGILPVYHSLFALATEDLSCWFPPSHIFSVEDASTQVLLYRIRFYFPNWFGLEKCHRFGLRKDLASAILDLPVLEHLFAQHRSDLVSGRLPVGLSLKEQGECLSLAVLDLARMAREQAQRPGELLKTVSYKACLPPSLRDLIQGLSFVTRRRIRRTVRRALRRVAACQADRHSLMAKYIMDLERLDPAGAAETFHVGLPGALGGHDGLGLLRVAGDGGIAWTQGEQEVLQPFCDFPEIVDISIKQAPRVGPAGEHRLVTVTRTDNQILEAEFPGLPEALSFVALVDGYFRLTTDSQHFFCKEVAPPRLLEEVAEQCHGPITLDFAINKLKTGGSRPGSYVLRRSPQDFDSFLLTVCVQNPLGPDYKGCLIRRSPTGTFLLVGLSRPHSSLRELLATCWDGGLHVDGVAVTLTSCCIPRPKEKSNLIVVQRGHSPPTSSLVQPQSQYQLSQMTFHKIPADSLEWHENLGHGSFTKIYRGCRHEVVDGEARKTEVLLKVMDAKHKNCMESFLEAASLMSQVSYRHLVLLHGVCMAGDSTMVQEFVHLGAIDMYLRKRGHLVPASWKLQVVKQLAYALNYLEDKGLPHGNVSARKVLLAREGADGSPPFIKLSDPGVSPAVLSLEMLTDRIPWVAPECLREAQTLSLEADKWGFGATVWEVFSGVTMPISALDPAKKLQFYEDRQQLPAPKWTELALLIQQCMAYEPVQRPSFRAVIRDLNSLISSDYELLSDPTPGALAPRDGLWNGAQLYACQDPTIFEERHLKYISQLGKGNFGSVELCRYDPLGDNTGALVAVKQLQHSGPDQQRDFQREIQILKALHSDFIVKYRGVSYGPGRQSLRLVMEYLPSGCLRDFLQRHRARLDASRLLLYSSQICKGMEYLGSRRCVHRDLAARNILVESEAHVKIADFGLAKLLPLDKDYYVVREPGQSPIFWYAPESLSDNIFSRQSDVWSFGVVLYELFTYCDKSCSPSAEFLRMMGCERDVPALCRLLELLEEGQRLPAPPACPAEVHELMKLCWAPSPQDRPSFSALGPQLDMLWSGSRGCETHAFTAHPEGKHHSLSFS

LCK = LCK (Homo sapiens, UniProt P06239); assay: Inhibition of a panel of kinases, in vitro HotSpot kinase assay: LCK; details: 1 μM ATP, read-out: LCK (IC50)
Chain of LCK (P06239 whole entry): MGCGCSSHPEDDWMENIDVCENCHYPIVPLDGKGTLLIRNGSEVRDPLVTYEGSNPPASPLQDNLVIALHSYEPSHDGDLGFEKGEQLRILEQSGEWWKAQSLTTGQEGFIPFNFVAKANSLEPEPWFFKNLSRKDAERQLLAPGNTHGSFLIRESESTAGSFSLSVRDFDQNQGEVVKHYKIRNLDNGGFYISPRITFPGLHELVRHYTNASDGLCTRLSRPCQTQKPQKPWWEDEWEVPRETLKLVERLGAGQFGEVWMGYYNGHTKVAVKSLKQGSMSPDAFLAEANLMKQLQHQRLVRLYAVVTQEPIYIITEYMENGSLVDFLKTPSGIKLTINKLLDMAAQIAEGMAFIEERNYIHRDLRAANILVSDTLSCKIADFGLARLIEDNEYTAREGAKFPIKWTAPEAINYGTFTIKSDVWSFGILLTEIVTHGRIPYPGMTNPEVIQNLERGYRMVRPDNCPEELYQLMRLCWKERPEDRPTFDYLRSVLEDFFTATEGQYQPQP

T1 sequence (Q06187 whole entry): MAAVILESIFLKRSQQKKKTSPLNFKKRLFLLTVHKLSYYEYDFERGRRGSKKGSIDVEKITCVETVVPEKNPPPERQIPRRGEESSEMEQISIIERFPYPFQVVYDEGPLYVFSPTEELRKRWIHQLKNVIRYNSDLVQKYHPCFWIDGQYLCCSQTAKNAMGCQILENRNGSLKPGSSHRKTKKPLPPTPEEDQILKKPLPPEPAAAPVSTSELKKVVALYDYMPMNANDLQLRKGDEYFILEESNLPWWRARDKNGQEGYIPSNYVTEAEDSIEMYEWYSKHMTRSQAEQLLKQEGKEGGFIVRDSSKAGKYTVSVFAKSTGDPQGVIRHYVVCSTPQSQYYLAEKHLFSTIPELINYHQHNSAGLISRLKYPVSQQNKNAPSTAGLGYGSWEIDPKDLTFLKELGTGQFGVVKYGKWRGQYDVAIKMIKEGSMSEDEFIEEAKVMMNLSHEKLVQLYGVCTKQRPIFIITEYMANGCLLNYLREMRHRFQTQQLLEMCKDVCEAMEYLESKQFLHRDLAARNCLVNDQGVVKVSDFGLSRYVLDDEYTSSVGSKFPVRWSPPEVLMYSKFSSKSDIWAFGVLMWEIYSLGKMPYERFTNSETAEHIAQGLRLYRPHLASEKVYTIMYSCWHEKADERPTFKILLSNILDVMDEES

SMILES | IC50 (BTK-WT; Table 10, Formula A-I) [µM] | IC50 (JAK3; Table 10, Formula A-I) [µM] | IC50 (LCK; Table 10, Formula A-I) [µM] | IC50 (BTK-WT; Table 12, Formula C-I) [µM] | IC50 (JAK3; Table 12, Formula C-I) [µM] | IC50 (LCK; Table 12, Formula C-I) [µM]
Cc1cc(Nc2cc(N3CCC[C@@H](NC(=O)N4Cc5ccccc5C4)C3)cnc2C(N)=O)sn1 [Example A-18, N-[(3R)-1-{6-carbamoyl-5-[(3-methyl-1,2-thiazol-5-yl)amino]pyridin-3-yl}piperidin-3-yl]-2,3-dihydro-1H-isoindole-2-carboxamide] | ≤ 0.1 | > 10 | > 10 | – | – | –
Cc1cc(Nc2nc(N3CCC[C@@H](NC(=O)Nc4cccnc4)C3)cnc2C(N)=O)sn1 [Example A-11] | ≤ 0.1 | 1 to 10 | 0.1 to 1 | – | – | –
NC(=O)c1ncc(N2CCC[C@@H](NC(=O)N3Cc4ccccc4C3)C2)nc1Nc1ccc(C2CCN(C3CCCC3)CC2)cc1 [Example A-5, N-[(3R)-1-(5-carbamoyl-6-{[4-(1-cyclopentylpiperidin-4-yl)phenyl]amino}pyrazin-2-yl)piperidin-3-yl]-2,3-dihydro-1H-isoindole-2-carboxamide hydrochloride] | ≤ 0.1 | 0.1 to 1 | 0.1 to 1 | – | – | –
CC1(c2ccc(Nc3nc(N4CCC[C@@H](NC(=O)c5ccccc5)C4)cnc3C(N)=O)cc2)CCN(C2CC2)CC1 [Example A-48, 5-[(3R)-3-benzamidopiperidin-1-yl]-3-{[4-(1-cyclopropyl-4-methylpiperidin-4-yl)phenyl]amino}pyrazine-2-carboxamide] | ≤ 0.1 | < 0.1 | < 0.1 | – | – | –
Cc1cc(Nc2cc(N3CCC[C@@H](NC(=O)c4ccc(N(C)C)cc4)C3)cnc2C(N)=O)sn1 [Example A-62, 5-[(3R)-3-[4-(dimethylamino)benzamido]piperidin-1-yl]-3-[(3-methyl-1,2-thiazol-5-yl)amino]pyridine-2-carboxamide] | ≤ 0.1 | > 10 | > 10 | – | – | –
Cc1cc(Nc2cc(N3CCC[C@@H](NC(=O)N(C)C)C3)cnc2C(N)=O)sn1 [Example A-64, 5-[(3R)-3-[(dimethylcarbamoyl)amino]piperidin-1-yl]-3-[(3-methyl-1,2-thiazol-5-yl)amino]pyridine-2-carboxamide] | 0.1 to 1 | 1 to 10 | > 10 | – | – | –
Cc1cc(Nc2nc(N3CCC[C@@H](NC(=O)c4ccc(N(C)C)nc4)C3)cnc2C(N)=O)sn1 [Example A-34, 5-[(3R)-3-[6-(dimethylamino)pyridine-3-amido]piperidin-1-yl]-3-[(3-methyl-1,2-thiazol-5-yl)amino]pyrazine-2-carboxamide] | ≤ 0.1 | 1 to 10 | 1 to 10 | – | – | –
CN(C(=O)N[C@@H]1CCCN(c2cnc(C(N)=O)c(Nc3ccc(C4CCN(C5CCCC5)CC4)cc3)n2)C1)c1ccccc1 [Example A-6, 3-{[4-(1-cyclopentylpiperidin-4-yl)phenyl]amino}-5-[(3R)-3-{[methyl(phenyl)carbamoyl]amino}piperidin-1-yl]pyrazine-2-carboxamide] | ≤ 0.1 | 0.1 to 1 | 0.1 to 1 | – | – | –
Cc1cccc(NC(=O)N[C@@H]2CCCN(c3cnc(C(N)=O)c(Nc4cc(C)ns4)n3)C2)c1 [Example A-10, 3-[(3-methyl-1,2-thiazol-5-yl)amino]-5-[(3R)-3-{[(3-methylphenyl)carbamoyl]amino}piperidin-1-yl]pyrazine-2-carboxamide] | ≤ 0.1 | 1 to 10 | 0.1 to 1 | – | – | –
Cc1cc(Nc2nc(N3CCC[C@@H](NC(=O)c4ccncc4)C3)cnc2C(N)=O)sn1 [Example A-29, 3-[(3-methyl-1,2-thiazol-5-yl)amino]-5-[(3R)-3-(pyridine-4-amido)piperidin-1-yl]pyrazine-2-carboxamide] | ≤ 0.1 | 0.1 to 1 | 1 to 10 | – | – | –
Cc1cc(Nc2nc(N3CC[C@@H](NC(=O)N(C)C)C3)cnc2C(N)=O)sn1 [Example A-51, 5-[(3R)-3-[(dimethylcarbamoyl)amino]pyrrolidin-1-yl]-3-[(3-methyl-1,2-thiazol-5-yl)amino]pyrazine-2-carboxamide] | 1 to 10 | > 10 | > 10 | – | – | –
C[C@H]1[C@@H](NC(=O)N(C)C)CCCN1c1cnc(C(N)=O)c(Nc2ccc3ncccc3c2)n1 [Example A-60, 5-[(2S,3S)-3-[(dimethylcarbamoyl)amino]-2-methylpiperidin-1-yl]-3-[(quinolin-6-yl)amino]pyrazine-2-carboxamide] | 0.1 to 1 | 1 to 10 | > 10 | – | – | –
Cc1cccc(C(=O)N[C@@H]2CCCN(c3cnc(C(N)=O)c(Nc4cc(C)ns4)n3)C2)c1 [Example A-33, 3-[(3-methyl-1,2-thiazol-5-yl)amino]-5-[(3R)-3-(3-methylbenzamido)piperidin-1-yl]pyrazine-2-carboxamide] | ≤ 0.1 | 1 to 10 | 0.1 to 1 | – | – | –
Cc1cc(Nc2nc(N3CCC(CNC(=O)N(C)C)CC3)cnc2C(N)=O)sn1 [Example A-75, 5-(4-{[(dimethylcarbamoyl)amino]methyl}piperidin-1-yl)-3-[(3-methyl-1,2-thiazol-5-yl)amino]pyrazine-2-carboxamide] | ≤ 0.1 | < 0.1 | 0.1 to 1 | – | – | –
Cc1cc(Nc2nc(N3CC[C@@H](NC(=O)c4ccccc4)C3)cnc2C(N)=O)sn1 [Example A-50, 5-[(3R)-3-benzamidopyrrolidin-1-yl]-3-[(3-methyl-1,2-thiazol-5-yl)amino]pyrazine-2-carboxamide] | 0.1 to 1 | > 10 | 1 to 10 | – | – | –

Next, values leading:

IC50 (BTK-WT; Table 10, Formula A-I) [µM] | IC50 (JAK3; Table 10, Formula A-I) [µM] | IC50 (LCK; Table 10, Formula A-I) [µM] | IC50 (BTK-WT; Table 12, Formula C-I) [µM] | IC50 (JAK3; Table 12, Formula C-I) [µM] | IC50 (LCK; Table 12, Formula C-I) [µM] | SMILES
– | – | – | 0.1 to 1 | 1 to 10 | 1 to 10 | Cc1cc(Nc2nc(N(C)CC3CCN(C(=O)c4ccc(N(C)C)cc4)CC3)cnc2C(N)=O)sn1 [Example C-16, 5-[({1-[4-(dimethylamino)benzoyl]piperidin-4-yl}methyl)(methyl)amino]-3-[(3-methyl-1,2-thiazol-5-yl)amino]pyrazine-2-carboxamide]
– | – | – | ≤ 0.1 | 0.1 to 1 | 0.1 to 1 | Cc1cc(Nc2nc(N[C@H]3CCCN(C(=O)N(C)C)C3)cnc2C(N)=O)sn1 [Example C-2, 5-{[(3S)-1-(dimethylcarbamoyl)piperidin-3-yl]amino}-3-[(3-methyl-1,2-thiazol-5-yl)amino]pyrazine-2-carboxamide]
– | – | – | ≤ 0.1 | 1 to 10 | 1 to 10 | Cc1cc(Nc2nc(N[C@@H]3CCN(C(=O)c4ccc(N(C)C)cc4)C3)cnc2C(N)=O)sn1 [Example C-13, 5-([(3R)-1-[4-(dimethylamino)benzoyl]pyrrolidin-3-yl]amino)-3-[(3-methyl-1,2-thiazol-5-yl)amino]pyrazine-2-carboxamide]
– | – | – | ≤ 0.1 | 0.1 to 1 | 0.1 to 1 | Cc1cc(Nc2nc(N[C@H]3CCN(C(=O)N(C)C)C3)cnc2C(N)=O)sn1 [Example C-10, 5-{[(3S)-1-(dimethylcarbamoyl)pyrrolidin-3-yl]amino}-3-[(3-methyl-1,2-thiazol-5-yl)amino]pyrazine-2-carboxamide]
– | – | – | ≤ 0.1 | < 0.1 | 0.1 to 1 | C=CC(=O)N1CC[C@H](Nc2nnc(C(N)=O)c(Nc3ccc(C(C)C)cc3)n2)C1 [Example C-31, (S)-3-(1-acryloylpyrrolidin-3-ylamino)-5-(4-isopropylphenylamino)-1,2,4-triazine-6-carboxamide]
– | – | – | ≤ 0.1 | 0.1 to 1 | > 10 | C=CC(=O)N1CC[C@@H](Nc2nnc(C(N)=O)c(Nc3cccc(C(=O)Nc4ccc(C(C)C)c(C)c4)c3)n2)C1 [Example C-30, (R)-3-(1-acryloylpyrrolidin-3-ylamino)-5-(3-(4-isopropyl-3-methylphenyl-carbamoyl)phenyl-amino)-1,2,4-triazine-6-carboxamide]
– | – | – | ≤ 0.1 | > 10 | > 10 | Cc1cc(Nc2nc(N[C@@H]3CCCN(C(=O)c4ccccc4)C3)cnc2C(N)=O)sn1 [Example C-3, 5-{[(3R)-1-benzoylpiperidin-3-yl]amino}-3-[(3-methyl-1,2-thiazol-5-yl)amino]pyrazine-2-carboxamide]
